Values quoted from earlier work as cited in patent US12528823B2, “Inhibitors of aldose reductase” (Applied Therapeutics, Inc., priority 2019, dated 2026).

What was measured:
[1] = system: ischemic injury (cerebral infarction); conditions: normal mice; single oral dose either 30 mins before ischemia or 1 h 45 mins after ischemia
[2] = positive control; published/known value; octanol/pH 7.4 phosphate buffer

SMILES | reduction in infarct volume resulting from ischemic injury [1] | Log D [2]
NC(=O)[C@@H]1C[C@]2(NC(=O)NC2=O)c2cc(F)ccc2O1 [Fidarestat] | 16-25% | 
C[C@]12CC[C@H]3[C@@H](CCC4=CC(=O)CC[C@@]43C)[C@@H]1CC[C@@H]2O [Testosterone] |  | 3.0-3.4
